{"source": "patent US10215746B2", "about": "“Methods for diagnosis and intervention of hepatic disorders” (The Regents of the University of Colorado, priority 2005, dated 2019)", "key": {"[1]": {"conditions": "cited from earlier work"}, "[2]": {"conditions": "in vivo; cited from earlier work"}, "[3]": {"conditions": "cited from earlier work", "remark": "listed apart in the source"}, "[4]": {"conditions": "single intravenous injection; cited from earlier work"}, "[5]": {"assay": "Dissolution of cholate for oral solution", "type": "physicochemical", "conditions": "aqueous sodium bicarbonate"}, "[6]": {"system": "chronic hepatitis C", "conditions": "90 μg/week vs no treatment; cited from earlier work"}}, "note": "Read-outs that look alike come from different tables or passages of the source.", "data": [{"molecule": "CC1(C)C(/C=C/C=C/C=C/C=C2\\N(CCCCS(=O)(=O)O)c3ccc4ccccc4c3C2(C)C)=[N+](CCCCS(=O)(=O)[O-])c2ccc3ccccc3c21", "note": "[Indocyanine green]", "values": [{"measurement": "first-pass hepatic extraction", "setting": "[1]; administered intravenously", "value": "up to 80%"}]}, {"molecule": "Cc1cc(=O)n(-c2ccccc2)n1C", "note": "[antipyrine]", "values": [{"measurement": "drug appearing unchanged in the urine", "setting": "[2]", "value": 5, "unit": "%"}]}, {"molecule": "CCN(CC)CC(=O)Nc1c(C)cccc1C", "note": "[Lidocaine]", "values": [{"measurement": "first pass elimination", "setting": "[1]; in vivo", "value": "up to 81%"}, {"measurement": "side effects (sensory symptoms)", "setting": "[3]; lower dose (less than 1 mg/kg such as 0.5 mg/kg) iv", "value": 30, "unit": "%"}, {"measurement": "side effects (sensory symptoms)", "setting": "[3]; standard dose 1 mg/kg iv over 2 minutes", "value": 53, "unit": "%"}]}, {"molecule": "O=C[C@H](O)[C@@H](O)[C@@H](O)[C@H](O)CO", "note": "[galactose]", "values": [{"measurement": "share of total plasma elimination due to distribution and metabolism outside the liver", "setting": "[4]", "value": 40, "unit": "%"}, {"measurement": "share of total plasma elimination due to hepatic clearance", "setting": "[4]", "value": "Approximately 60%"}]}, {"molecule": "C[C@H](CCC(=O)O)[C@H]1CC[C@H]2[C@@H]3[C@H](O)C[C@@H]4C[C@H](O)CC[C@]4(C)[C@H]3C[C@H](O)[C@]12C", "note": "[Cholate, cholic acid]", "values": [{"measurement": "dissolution", "setting": "[5]", "value": "easily dissolved"}]}, {"molecule": "peginterferon alfa-2a [PegIFN]", "values": [{"measurement": "effect on clinical or histological outcomes", "setting": "[6]", "value": "did not affect clinical or histological outcomes"}]}]}
